Assays:
[1] = target: T1, CDK2/CycE (Homo sapiens, UniProt P24941); test: CDK2/CycE kinase assay (TR-FRET, 2 mM ATP); assay type: biochemical; conditions: 2 mM ATP (high ATP); median; read-out: CDK2/CyclinE, 2 mM ATP (high ATP), IC50 (median)
T1 construct: purchased ProQinase GmbH (Freiburg, Germany); host or cells: insect cells (Sf9)
How it was run: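 Biotin-peptide phosphorylation (0.75 µM substrate, 2 mM ATP final, 25 min, 22 °C) by Sf9-expressed GST-CDK2/GST-CycE, after a 15-min compound pre-binding step. Inhibition scaled between enzyme-free (100%) and uninhibited (0%) wells.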

[2] = target: T2, CDK9/CycT1 (Homo sapiens, UniProt P50750); test: CDK9/CycT1 high ATP kinase assay (TR-FRET, 2 mM ATP); assay type: biochemical; conditions: 2 mM ATP (high ATP); median; read-out: CDK9/CyclinT1, 2 mM ATP (high ATP), IC50 (median)
T2 construct: Recombinant full-length His-tagged human CDK9 and CycT1; purchased Life Technologies PV4131; host or cells: insect cells
How it was run: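 Full-length His-tagged human CDK9/CycT1 (insect cell, ~0.5 μg/mL) preincubated 15 min at 22 °C with compound in Tris pH 8.0, MgCl2, DTT buffer before reaction with biotinylated peptide substrate at high ATP (2 mM).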

T2 sequence (P50750 whole entry): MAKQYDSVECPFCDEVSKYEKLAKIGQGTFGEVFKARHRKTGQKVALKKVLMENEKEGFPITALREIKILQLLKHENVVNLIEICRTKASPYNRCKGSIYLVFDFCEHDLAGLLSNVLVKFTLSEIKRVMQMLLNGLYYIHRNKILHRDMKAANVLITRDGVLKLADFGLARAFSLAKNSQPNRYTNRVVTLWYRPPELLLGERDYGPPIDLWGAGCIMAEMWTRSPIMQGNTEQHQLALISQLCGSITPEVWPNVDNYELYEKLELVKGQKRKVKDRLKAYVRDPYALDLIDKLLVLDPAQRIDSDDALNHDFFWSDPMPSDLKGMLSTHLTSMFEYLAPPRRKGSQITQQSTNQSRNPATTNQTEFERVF
T2 sequence (O60563 whole entry partner): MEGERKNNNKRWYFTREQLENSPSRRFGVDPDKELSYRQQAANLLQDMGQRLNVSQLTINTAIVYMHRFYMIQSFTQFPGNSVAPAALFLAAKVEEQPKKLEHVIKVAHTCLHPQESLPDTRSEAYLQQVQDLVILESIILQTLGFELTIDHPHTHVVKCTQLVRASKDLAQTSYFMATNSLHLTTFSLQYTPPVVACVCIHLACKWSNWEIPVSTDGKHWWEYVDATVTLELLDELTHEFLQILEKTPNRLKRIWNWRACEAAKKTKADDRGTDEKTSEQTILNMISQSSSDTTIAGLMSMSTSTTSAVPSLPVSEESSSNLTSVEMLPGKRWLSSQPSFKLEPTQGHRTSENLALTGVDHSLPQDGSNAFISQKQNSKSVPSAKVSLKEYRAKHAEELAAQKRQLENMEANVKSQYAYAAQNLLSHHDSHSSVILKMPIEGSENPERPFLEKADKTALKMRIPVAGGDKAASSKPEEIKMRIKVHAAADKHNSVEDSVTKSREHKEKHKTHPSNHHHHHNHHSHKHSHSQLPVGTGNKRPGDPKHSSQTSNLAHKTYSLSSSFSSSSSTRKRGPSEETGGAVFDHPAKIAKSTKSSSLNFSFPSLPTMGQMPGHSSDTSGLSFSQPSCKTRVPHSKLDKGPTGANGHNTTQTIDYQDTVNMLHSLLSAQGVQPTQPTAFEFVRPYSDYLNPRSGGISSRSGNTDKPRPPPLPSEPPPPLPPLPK

SMILES	IC50 [1] [nM]	IC50 [2] [nM]
CC(C)c1cnn2c(NCc3nnc(-c4ccccc4)[nH]3)nc(N3CCOCC3)nc12 [Example 33, 2-(morpholin-4-yl)-N-[(5-phenyl-4H-1,2,4-triazol-3-yl)methyl]-8-(propan-2-yl)pyrazolo[1,5-a][1,3,5]triazin-4-amine]	8260	14100
CCNc1nc(NCc2ncc(-c3ccccc3)[nH]2)n2ncc(C(C)C)c2n1 [Example 34, N^2-ethyl-N^4-[(5-phenyl-1H-imidazol-2-yl)methyl]-8-(propan-2-yl)pyrazolo[1,5-a][1,3,5]triazine-2,4-diamine]	6180	> 20000
CC(C)c1cnn2c(NCc3ncc(-c4ccccc4)[nH]3)nc(N(C)CC(C)(C)O)nc12 [Example 35, 2-methyl-1-{methyl[4-{[(5-phenyl-1H-imidazol-2-yl)methyl]amino}-8-(propan-2-yl)pyrazolo[1,5-a][1,3,5]triazin-2-yl]amino}propan-2-ol]	1700	9150
CC(C)c1cnn2c(NCc3ncc(-c4ccccc4)[nH]3)nc(N3CCCCC3)nc12 [Example 36, N-[(5-phenyl-1H-imidazol-2-yl)methyl]-2-(piperidin-1-yl)-8-(propan-2-yl)pyrazolo[1,5-a][1,3,5]triazin-4-amine]	> 20000	> 20000
CC(C)c1cnn2c(NCc3nnc(-c4ccccc4)[nH]3)nc(N3CCN(C)CC3)nc12 [Example 37, 2-(4-methylpiperazin-1-yl)-N-[(5-phenyl-4H-1,2,4-triazol-3-yl)methyl]-8-(propan-2-yl)pyrazolo[1,5-a][1,3,5]triazin-4-amine]	> 15300	> 20000
CCNc1nc(NCc2nnc(-c3ccccc3)[nH]2)n2ncc(C(C)C)c2n1 [Example 38, N^2-ethyl-N^4-[(5-phenyl-4H-1,2,4-triazol-3-yl)methyl]-8-(propan-2-yl)pyrazolo[1,5-a][1,3,5]triazine-2,4-diamine]	8300	> 20000
CC(C)c1cnn2c(NCc3nnc(-c4ccccc4)[nH]3)nc(N(C)CC(C)(C)O)nc12 [Example 39, 2-methyl-1-{methyl[4-{[(5-phenyl-4H-1,2,4-triazol-3-yl)methyl]amino}-8-(propan-2-yl)pyrazolo[1,5-a][1,3,5]triazin-2-yl]amino}propan-2-ol]	2110	4910
Cc1cccc(-c2nnc(CNc3nc(N4CCOCC4)nc4c(Br)cnn34)[nH]2)c1 [Example 40, 8-bromo-N-{[5-(3-methylphenyl)-4H-1,2,4-triazol-3-yl]methyl}-2-(morpholin-4-yl)pyrazolo[1,5-a][1,3,5]triazin-4-amine]	2110	2820
Fc1ccc(-c2nnc(CNc3nc(N4CCOCC4)nc4c(Br)cnn34)[nH]2)c(F)c1 [Example 41, 8-bromo-N-{[5-(2,4-difluorophenyl)-4H-1,2,4-triazol-3-yl]methyl}-2-(morpholin-4-yl)pyrazolo[1,5-a][1,3,5]triazin-4-amine]	> 1630	> 20000
N#Cc1cccc(-c2c[nH]c(CNc3nc(N4CCOCC4)nc4c(Br)cnn34)n2)c1 [Example 42, 3-[2-({[8-bromo-2-(morpholin-4-yl)pyrazolo[1,5-a][1,3,5]triazin-4-yl]amino}methyl)-1H-imidazol-4-yl]benzonitrile]	1030	937
N#Cc1cnn2c(NCc3nc4ccccc4[nH]3)nc(N3CCOCC3)nc12 [Example 43, 4-{[(1H-benzimidazol-2-yl)methyl]amino}-2-(morpholin-4-yl)pyrazolo[1,5-a][1,3,5]triazine-8-carbonitrile]	> 20000	> 20000
Fc1cccc(-c2nnc(CNc3nc(N4CCOCC4)nc4c(Br)cnn34)[nH]2)c1 [Example 44, 8-bromo-N-{[5-(3-fluorophenyl)-4H-1,2,4-triazol-3-yl]methyl}-2-(morpholin-4-yl)pyrazolo[1,5-a][1,3,5]triazin-4-amine]	1130	885
Clc1ccc(-c2nnc(CNc3nc(N4CCOCC4)nc4c(Br)cnn34)[nH]2)cc1 [Example 45, 8-bromo-N-{[5-(4-chlorophenyl)-4H-1,2,4-triazol-3-yl]methyl}-2-(morpholin-4-yl)pyrazolo[1,5-a][1,3,5]triazin-4-amine]	5370	3410
Brc1cnn2c(NCc3nc4ccccc4[nH]3)nc(N3CCCCC3)nc12 [Example 46, N-[(1H-benzimidazol-2-yl)methyl]-8-bromo-2-(piperidin-1-yl)pyrazolo[1,5-a][1,3,5]triazin-4-amine]	1850	> 20000
Brc1cnn2c(NCc3nc4ccccc4[nH]3)nc(N3CCCC3)nc12 [Example 47, N-[(1H-benzimidazol-2-yl)methyl]-8-bromo-2-(pyrrolidin-1-yl)pyrazolo[1,5-a][1,3,5]triazin-4-amine]	4660	> 20000
Brc1cnn2c(NCc3nc4ccccc4[nH]3)nc(N3CC4(COC4)C3)nc12 [Example 48, N-[(1H-benzimidazol-2-yl)methyl]-8-bromo-2-(2-oxa-6-azaspiro[3.3]heptan-6-yl)pyrazolo[1,5-a][1,3,5]triazin-4-amine]	12600	> 20000
Brc1cnn2c(NCc3nnc(-c4ccccc4)[nH]3)nc(N3CCCCC3)nc12 [Example 49, 8-bromo-N-[(5-phenyl-4H-1,2,4-triazol-3-yl)methyl]-2-(piperidin-1-yl)pyrazolo[1,5-a][1,3,5]triazin-4-amine]	2290	2610
COc1cccc(-c2nnc(CNc3nc(N4CCOCC4)nc4c(Br)cnn34)[nH]2)c1 [Example 50, 8-bromo-N-{[5-(3-methoxyphenyl)-4H-1,2,4-triazol-3-yl]methyl}-2-(morpholin-4-yl)pyrazolo[1,5-a][1,3,5]triazin-4-amine]	2330	2010

Other lines, results leading:

IC50 [1] [nM]	IC50 [2] [nM]	SMILES
1640	1290	Clc1cccc(-c2nnc(CNc3nc(N4CCOCC4)nc4c(Br)cnn34)[nH]2)c1 [Example 51, 8-bromo-N-{[5-(3-chlorophenyl)-4H-1,2,4-triazol-3-yl]methyl}-2-(morpholin-4-yl)pyrazolo[1,5-a][1,3,5]triazin-4-amine]
2650	1840	FC(F)(F)c1cccc(-c2nnc(CNc3nc(N4CCOCC4)nc4c(Br)cnn34)[nH]2)c1 [Example 52, 8-bromo-2-(morpholin-4-yl)-N-({5-[3-(trifluoromethyl)phenyl]-4H-1,2,4-triazol-3-yl}methyl)pyrazolo[1,5-a][1,3,5]triazin-4-amine]
1680	1290	Brc1cnn2c(NCc3nnc(-c4cccnc4)[nH]3)nc(N3CCOCC3)nc12 [Example 53, 8-bromo-2-(morpholin-4-yl)-N-{[5-(pyridin-3-yl)-4H-1,2,4-triazol-3-yl]methyl}pyrazolo[1,5-a][1,3,5]triazin-4-amine]
1890	6240	Brc1cnn2c(NCc3nnc(-c4ccccn4)[nH]3)nc(N3CCOCC3)nc12 [Example 54, 8-bromo-2-(morpholin-4-yl)-N-{[5-(pyridin-2-yl)-4H-1,2,4-triazol-3-yl]methyl}pyrazolo[1,5-a][1,3,5]triazin-4-amine]
1070	718	N#Cc1cccc(-c2nnc(CNc3nc(N4CCOCC4)nc4c(Br)cnn34)[nH]2)c1 [Example 55, 3-[5-({[8-bromo-2-(morpholin-4-yl)pyrazolo[1,5-a][1,3,5]triazin-4-yl]amino}methyl)-4H-1,2,4-triazol-3-yl]benzonitrile]
2020	> 20000	C[C@@H]1COCCN1c1nc(NCc2nc3ccccc3[nH]2)n2ncc(Br)c2n1 [Example 56, N-[(1H-benzimidazol-2-yl)methyl]-8-bromo-2-[(3R)-3-methylmorpholin-4-yl]pyrazolo[1,5-a][1,3,5]triazin-4-amine]
1220	6670	C[C@H]1COCCN1c1nc(NCc2nc3ccccc3[nH]2)n2ncc(Br)c2n1 [Example 57, N-[(1H-benzimidazol-2-yl)methyl]-8-bromo-2-[(3S)-3-methylmorpholin-4-yl]pyrazolo[1,5-a][1,3,5]triazin-4-amine]
10700	> 20000	CC1(C)CN(c2nc(NCc3nc4ccccc4[nH]3)n3ncc(Br)c3n2)CCO1 [Example 58, N-[(1H-benzimidazol-2-yl)methyl]-8-bromo-2-(2,2-dimethylmorpholin-4-yl)pyrazolo[1,5-a][1,3,5]triazin-4-amine]
1050	10700	OC[C@@H]1CCCCN1c1nc(NCc2nc3ccccc3[nH]2)n2ncc(Br)c2n1 [Example 59, [(2S)-1-(4-{[(1H-benzimidazol-2-yl)methyl]amino}-8-bromopyrazolo[1,5-a][1,3,5]triazin-2-yl)piperidin-2-yl]methanol]
738	7340	OC[C@H]1CCCCN1c1nc(NCc2nc3ccccc3[nH]2)n2ncc(Br)c2n1 [Example 60, [(2R)-1-(4-{[(1H-benzimidazol-2-yl)methyl]amino}-8-bromopyrazolo[1,5-a][1,3,5]triazin-2-yl)piperidin-2-yl]methanol]
9060	> 20000	COc1ccccc1-c1nnc(CNc2nc(N3CCOCC3)nc3c(Br)cnn23)[nH]1 [Example 61, 8-bromo-N-{[5-(2-methoxyphenyl)-4H-1,2,4-triazol-3-yl]methyl}-2-(morpholin-4-yl)pyrazolo[1,5-a][1,3,5]triazin-4-amine]
